Reference: US12054495B2, “Substituted macrocyclic compounds and related methods of treatment” (Alkermes, Inc., priority 2019, dated 2024)
Like-named read-outs stand apart in the source and are kept apart here.

What was measured:
MDR1 = assay: MDCK-MDR1 permeability assay; assay type: in vitro ADME; settings: dog; for Papp A→B at 2 h, 3 μM: MDCK-MDR1, MDCK-MDR1 cells, apical to basolateral, 3 μM test compound, 2 hours at 37 degrees C; for efflux ratio at 2 h, 3 μM: MDCK-MDR1, Papp (basolateral to apical) divided by Papp (apical to basolateral), MDCK-MDR1 cells, read-out: Efflux ratio (ER)
Outline: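 Bidirectional transport across MDCK-MDR1 monolayers with test compound at 3 μM in HBSS, Lucifer Yellow 100 μM co-dosed as integrity marker; 2 h at 37 °C, donor and receiver quantified by LC-MS/MS. Papp = dQ/dt × 1/(A×C0); efflux ratio = Papp(B→A)/Papp(A→B), ER>2 taken as active transport.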

[1] = Hepatocytes stability assay (human hepatocytes); assay type: in vitro ADME; settings: both sexes, cryopreserved hepatocytes, 1 μM test compound, 1×10^6 cell/mL, 37 degrees C, read-out: CLint (μL/min/million cells)
Outline: (§1)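 Cryopreserved pooled (50 donors, mixed gender) human hepatocytes at 1×10^6 cells/mL in Krebs-Henseleit buffer with 1 μM compound (0.1% DMSO), 37 degrees C, sampled 0–240 min. Parent depletion by LC-MS/MS; first-order fit gave T1/2 and CLint, scaled to hepatic clearance via well-stirred model (fu assumed 1); extraction ratio = CL,hep/liver blood flow.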

human hepatocytes = assay: Hepatocytes stability assay (human hepatocytes); assay type: in vitro ADME; settings: scaled hepatic clearance divided by liver blood flow, fu assumed unity
Outline: as §1

Sprague-Dawley rats = assay: Assessment of wake promotion in Sprague-Dawley rats (EEG/EMG); assay type: in vivo; settings: Rattus norvegicus, 3 mpk, male Sprague-Dawley rats, dosed at ZT5, 6-hour post-dose period, read-out: Mean cortical activation time (% vehicle treatment)
Procedure: Wake promotion was assessed using electroencephalography (EEG) and electromyography (EMG) in adult male Sprague-Dawley rats (350-600 g). All rats (Charles River Laboratories, Raleigh, NC, USA) were intraperitoneally implanted with telemetry devices (F50-EEE, Data Sciences International Inc., M/N, USA) under isoflurane anesthesia. For EEG, stainless steel screws were implanted over frontal cortex and parietal cortex, and reference screws were placed over cerebellum. Additionally, an electrode was placed in neck muscle for EMG. Rats were given carprofen post-surgery and underwent a 7 to 10-day recovery period. Rats habituated to the experimental room for 7 days and were maintained on a 12-hour light-dark cycle.
EEG and EMG data were recorded using the DSI telemetry system and Ponemah software (Data Sciences International Inc., MN, USA). Sleep-wake stages were scored both manually and with Somnivore, a supervised machine learning software platform, in 10 second epocs. Records were visually inspected as needed post-processing.
All test compounds were dissolved in 5% DMSO and suspended in 95% saline with 0.5% methylcellulose and 0.5% tween. […] Unless otherwise indicated, all compounds were dosed orally. Recordings for each rat were initiated immediately after dosing and lasted for 6 hours post-dose.
Two key endpoints include wakefulness time and cortical activation time. Wakefulness time is derived from the sleep-wake stage analysis. Cortical activation time is based on the duration in which frontal gamma oscillatory activity (30-100 Hz), a key feature of wakefulness, was elevated relative to a pre-treatment baseline. Mean cortical activation time was computed relative to vehicle treatment for the 6-hour post-dose period.

| Papp A→B at 2 h, 3 μM (MDR1) | efflux ratio at 2 h, 3 μM (MDR1) | hepatocyte CLint at 1 μM [1] | Extraction Ratio (ER) (human hepatocytes) | Structure (SMILES) | response vs control in vivo at 3 mg/kg (Sprague-Dawley rats; PO) | response vs control in vivo at 3 mg/kg (Sprague-Dawley rats; SC) |
| --- | --- | --- | --- | --- | --- | --- |
| 0.72 ×10⁻⁶ cm/s | 36 | 12 µL/min/1e6 cells | 0.64 | CS(=O)(=O)N[C@@H]1CCCN2C(=O)COc3cccc(F)c3[C@H]3CC[C@H](CC3)OC[C@H]12 (racemic) [Compound 49] | 340% | – |
| 5.9 ×10⁻⁶ cm/s | 4 | 51 µL/min/1e6 cells | 0.88 | COC(=O)N1CCC[C@H](NS(C)(=O)=O)[C@@H]1CO[C@H]1CC[C@@H](c2ccccc2)CC1 [methyl (2R,3S)-3-((methylsulfonyl)amino)-2-(((cis-4-phenylcyclohexyl)oxy)methyl)-piperidine-1-carboxylate, reference compound] | – | 119% |
